From US9409866B2, “Pyridine-2-amides useful as CB2 agonists” (Hoffmann-La Roche Inc., priority 2012, dated 2016) come the findings set out here.

One may read the EC50 as the concentration giving half of the maximal effect.

Assay [1] concerns the target human CB1 receptors (Homo sapiens (Human), UniProt P21554). Briefly: functional cAMP assay, CHO cells expressing human CB1. It is filed as cell-based. In outline: (§1)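 Cells are seeded 17-24 h ahead, then preincubated in Krebs Ringer bicarbonate buffer with 1 mM IBMX at 30 °C. Compounds act for 30 min at 30 °C, after which lysis and cAMP detection reagents are added for 2 h at room temperature. Time-resolved FRET gives cAMP content, and EC50 values are fitted from it.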

The target in assay [2] is human CB2 receptors (Homo sapiens (Human), UniProt P34972). Put plainly: functional cAMP assay, CHO cells expressing human CB2. It is filed as cell-based. In outline: as §1
In general terms: cAMP levels reflect the balance of adenylyl cyclase and phosphodiesterase activity.

The mark [3] stands for this setting: functional cAMP assay, CHO cells expressing human CB1; read-out: Human CB1 EC50.
Where [4] appears, read: read-out: Human CB1 EC50; functional cAMP assay, CHO cells expressing human CB1.
Setting [5] is: Human CB1 EC50 (uM), functional cAMP assay, CHO cells expressing human CB1.

Like-named read-outs stand apart in the source and are kept apart here.

Sequence of human CB1 receptors (P21554 whole entry): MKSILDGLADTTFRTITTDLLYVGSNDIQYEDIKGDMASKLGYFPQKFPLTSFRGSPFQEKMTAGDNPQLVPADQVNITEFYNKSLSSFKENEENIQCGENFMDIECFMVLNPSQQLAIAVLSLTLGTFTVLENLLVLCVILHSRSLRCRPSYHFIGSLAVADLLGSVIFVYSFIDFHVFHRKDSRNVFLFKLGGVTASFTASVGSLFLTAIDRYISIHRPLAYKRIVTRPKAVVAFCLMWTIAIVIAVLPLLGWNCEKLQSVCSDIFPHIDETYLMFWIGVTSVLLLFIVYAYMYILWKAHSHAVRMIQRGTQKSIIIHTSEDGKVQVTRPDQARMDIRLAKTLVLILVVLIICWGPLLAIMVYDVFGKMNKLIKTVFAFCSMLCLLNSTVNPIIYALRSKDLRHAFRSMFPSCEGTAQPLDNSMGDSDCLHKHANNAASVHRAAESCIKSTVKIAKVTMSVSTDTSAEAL
Sequence of human CB2 receptors (P34972 whole entry): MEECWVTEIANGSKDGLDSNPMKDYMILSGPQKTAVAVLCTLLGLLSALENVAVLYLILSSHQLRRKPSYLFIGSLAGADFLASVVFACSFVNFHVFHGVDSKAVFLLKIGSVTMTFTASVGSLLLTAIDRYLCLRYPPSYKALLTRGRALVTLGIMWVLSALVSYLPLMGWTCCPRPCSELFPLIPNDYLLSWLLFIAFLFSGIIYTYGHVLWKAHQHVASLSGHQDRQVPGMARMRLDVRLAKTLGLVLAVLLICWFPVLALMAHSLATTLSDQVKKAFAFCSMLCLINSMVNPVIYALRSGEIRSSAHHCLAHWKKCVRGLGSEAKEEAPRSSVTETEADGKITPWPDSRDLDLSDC

`Cc1nc(C(C)(NC(=O)c2cc(OCC(F)(F)F)c(Cl)cn2)C2CC2)no1` (stereo not shown) [Example 62, 5-Chloro-4-(2,2,2-trifluoro-ethoxy)-pyridine-2-carboxylic acid [1-cyclopropyl-1-(5-methyl-[1,2,4]oxadiazol-3-yl)-ethyl]-amide]: the concentration for a half-maximal effect (EC50) in assay [1] (setting [3]) is more than 10 µM; in assay [2] (read-out: Human CB2 EC50), 0.0089 µM.
In the same order, the values of `Cc1nc(C(NC(=O)c2cc(O[C@@H](C)C(F)(F)F)c(C3CC3)cn2)C(C)(C)C)no1` (stereo partly drawn) [Example 220, 5-cyclopropyl-N-[2,2-dimethyl-1-(5-methyl-1,2,4-oxadiazol-3-yl)propyl]-4-[(2S)-1,1,1-trifluoropropan-2-yl]oxypyridine-2-carboxamide] are more than 10 µM and 0.0027 µM.
Turning to `CC(C)C[C@H](NC(=O)c1cc(OCC2CC2)c(C2CC2)cn1)C(N)=O` [Example 47, 5-Cyclopropyl-4-cyclopropylmethoxy-pyridine-2-carboxylic acid ((S)-1-carbamoyl-3-methyl-butyl)-amide], the 50% effective concentration (EC50) in assay [1] (setting [3]) was more than 10 µM; in assay [2] (read-out: Human CB2 EC50), 0.0118 µM.
`Cc1nc(C(C)(CS(C)(=O)=O)NC(=O)c2cc(OCC(F)(F)F)c(C3(O)CCC3)cn2)no1` (stereo not shown) [Example 129, 5-(1-hydroxycyclobutyl)-N-[2-(5-methyl-1,2,4-oxadiazol-3-yl)-1-methylsulfonylpropan-2-yl]-4-(2,2,2-trifluoroethoxy)pyridine-2-carboxamide]: the EC50 in assay [1] (setting [3]) is more than 10 µM; in assay [2] (read-out: Human CB2 EC50) it was 1.09 µM.
`CNC(=O)C(C)(NC(=O)c1cc(OCC(F)(F)F)c(C2CC2)cn1)c1noc(C)n1` (single isomer, unassigned) [Example 188, 5-cyclopropyl-N-[1-(methylamino)-2-(5-methyl-1,2,4-oxadiazol-3-yl)-1-oxopropan-2-yl]-4-(2,2,2-trifluoroethoxy)pyridine-2-carboxamide]: the EC50 was more than 10 µM in assay [1] (setting [4]) and 0.0206 µM in assay [2] (Human CB2 EC50 (uM)).
Take `C[C@H](Oc1cc(C(=O)NC(C)(CC(N)=O)C2CC2)ncc1C1CC1)C(F)(F)F` (stereo partly drawn) [Example 258, N-(4-amino-2-cyclopropyl-4-oxobutan-2-yl)-5-cyclopropyl-4-[(2S)-1,1,1-trifluoropropan-2-yl]oxypyridine-2-carboxamide]: the EC50 in assay [1] (setting [3]) was more than 10 µM; in assay [2] (read-out: Human CB2 EC50), 0.013 µM.
For the compound `Cc1nc(C(C)(CS(C)(=O)=O)NC(=O)c2cc(OC(C)CF)c(C3CC3)cn2)no1` (single isomer, unassigned) [Example 295, 5-cyclopropyl-4-(1-fluoropropan-2-yloxy)-N-(2-(5-methyl-1,2,4-oxadiazol-3-yl)-1-(methylsulfonyl)propan-2-yl)picolinamide], the EC50 in assay [1] (setting [5]) is more than 10 µM; in assay [2] (Human CB2 EC50 (uM)), 0.0024 µM.
With `CC(C)(C)NC(=O)c1cc(OCC(F)(F)F)c(C2CC2)cn1` [Example 70, 5-Cyclopropyl-4-(2,2,2-trifluoro-ethoxy)-pyridine-2-carboxylic acid tert-butylamide], the results for the concentration for a half-maximal effect (EC50) in assay [1] (setting [3]) and in assay [2] (read-out: Human CB2 EC50) were more than 10 µM and 0.0104 µM, respectively.
In the case of `CC1(C(NC(=O)c2cc(OCC(F)(F)F)c(C3CC3)cn2)C(N)=O)COC1` (single isomer, unassigned) [Example 268, N-[2-amino-1-(3-methyloxetan-3-yl)-2-oxoethyl]-5-cyclopropyl-4-(2,2,2-trifluoroethoxy)pyridine-2-carboxamide], the values for the 50% effective concentration (EC50) in assay [1] (setting [5]) and in assay [2] (Human CB2 EC50 (uM)) were more than 10 µM and 0.225 µM, respectively.
On to `Cc1nc([C@@](C)(NC(=O)c2cc(O[C@@H](C)C(F)(F)F)c(C3(F)COC3)cn2)C2CC2)no1` [Example 168, N-[1-cyclopropyl-1-(5-methyl-1,2,4-oxadiazol-3-yl)ethyl]-5-(3-fluorooxetan-3-yl)-4-[(2S)-1,1,1-trifluoropropan-2-yl]oxypyridine-2-carboxamide], for which the EC50 in assay [1] (setting [3]) was more than 10 µM; in assay [2] (read-out: Human CB2 EC50), 0.281 µM.
For `CC(CC1CC1)(NC(=O)c1cc(OCC(F)(F)F)c(C2CC2)cn1)c1noc(N)n1` (stereo not shown) [Example 165, N-[2-(5-amino-1,2,4-oxadiazol-3-yl)-1-cyclopropylpropan-2-yl]-5-cyclopropyl-4-(2,2,2-trifluoroethoxy)pyridine-2-carboxamide], in that order: more than 10 µM and 0.022 µM.
Turning to `CC(CF)Oc1cc(C(=O)NC2(CC(N)=O)CS(=O)(=O)C2)ncc1C1CC1` (single isomer, unassigned) [Example 292, N-[3-(2-amino-2-oxoethyl)-1,1-dioxothietan-3-yl]-5-cyclopropyl-4-[1-fluoropropan-2-yl]oxypyridine-2-carboxamide], the EC50 was more than 10 µM in assay [1] (setting [4]) and 0.0019 µM in assay [2] (Human CB2 EC50 (uM)).
On to `O=C(NC1(c2nccs2)COC1)c1cc(OCC2CC2)c(Cl)cn1` [Example 32, 5-Chloro-4-cyclopropylmethoxy-pyridine-2-carboxylic acid (3-thiazol-2-yl-oxetan-3-yl)-amide], for which the EC50 in assay [1] (setting [3]) was more than 10 µM; in assay [2] (read-out: Human CB2 EC50), 0.0746 µM.
In the same order, the values of `Cc1nc(C(C)(CC2CC2)NC(=O)c2cc(O[C@@H](C)C(F)(F)F)c(C3CCC3)cn2)no1` (stereo partly drawn) [Example 121, 5-cyclobutyl-N-[1-cyclopropyl-2-(5-methyl-1,2,4-oxadiazol-3-yl)propan-2-yl]-4-[(2S)-1,1,1-trifluoropropan-2-yl]oxypyridine-2-carboxamide] are more than 10 µM and 0.0006 µM.
In the same order, the values of `Cc1nc(C(C)(CS(C)(=O)=O)NC(=O)c2cc(O[C@@H](C)C(F)(F)F)c(C3CCC3)cn2)no1` (stereo partly drawn) [Example 111, 5-Cyclobutyl-4-((S)-2,2,2-trifluoro-1-methyl-ethoxy)-pyridine-2-carboxylic acid [2-methanesulfonyl-1-methyl-1-(5-methyl-[1,2,4]oxadiazol-3-yl)-ethyl]-amide] are 0.43 µM and 0.003 µM.
With `CNC(=O)C(NC(=O)c1cc(O[C@@H](C)C(F)(F)F)c(C2CC2)cn1)C(C)(C)C` (stereo partly drawn) [Example 200, 5-cyclopropyl-N-[3,3-dimethyl-1-(methylamino)-1-oxobutan-2-yl]-4-[(2S)-1,1,1-trifluoropropan-2-yl]oxypyridine-2-carboxamide], the EC50 in assay [1] (setting [3]) is more than 10 µM; in assay [2] (read-out: Human CB2 EC50) it was 0.0026 µM.
As for `CC(CC(N)=O)(NC(=O)c1cc(OCC(F)(F)F)c(C2(F)CCC2)cn1)C1CC1` (single isomer, unassigned) [Example 310, N-[4-amino-2-cyclopropyl-4-oxobutan-2-yl]-5-(1-fluorocyclobutyl)-4-(2,2,2-trifluoroethoxy)pyridine-2-carboxamide], the EC50 was 2.44 µM in assay [1] (setting [5]) and 0.0154 µM in assay [2] (Human CB2 EC50 (uM)).
As to `CC(C)(C)C(NC(=O)c1cc(OCC(F)(F)F)c(C2CC2)cn1)C(N)=O` (stereo not shown) [Example 194, N-(1-amino-3,3-dimethyl-1-oxobutan-2-yl)-5-cyclopropyl-4-(2,2,2-trifluoroethoxy)pyridine-2-carboxamide], the concentration for a half-maximal effect (EC50) is more than 10 µM in assay [1] (setting [3]) and 0.0151 µM in assay [2] (read-out: Human CB2 EC50).
On to `CC(C)(C)C(NC(=O)c1cc(OCC2CC2)c(N2CC(F)(F)C2)cn1)C(N)=O` (single isomer, unassigned) [Example 260, N-[1-amino-3,3-dimethyl-1-oxobutan-2-yl]-4-(cyclopropylmethoxy)-5-(3,3-difluoroazetidin-1-yl)pyridine-2-carboxamide], for which the results for the EC50 in assay [1] (setting [5]) and in assay [2] (Human CB2 EC50 (uM)) were more than 10 µM and 0.0209 µM, respectively.
As to `CC(C)(CO)NC(=O)c1cc(-c2cccc(Cl)c2)c(Cl)cn1` [Example 2, 5-Chloro-4-(3-chlorophenyl)-pyridine-2-carboxylic acid (2-hydroxy-1,1-dimethyl-ethyl)-amide], the EC50 is more than 10 µM in assay [1] (setting [3]) and 0.0963 µM in assay [2] (read-out: Human CB2 EC50).
For `Cc1nc(C(C)(CC2CC2)NC(=O)c2cc(O[C@@H](C)C(F)(F)F)c(C3CC3)cn2)no1` (stereo partly drawn) [Example 101, 5-Cyclopropyl-4-((S)-2,2,2-trifluoro-1-methyl-ethoxy)-pyridine-2-carboxylic acid [2-cyclopropyl-1-methyl-1-(5-methyl-[1,2,4]oxadiazol-3-yl)-ethyl]-amide], in that order: 0.21 µM and 0.0007 µM.
As for `CC(CF)Oc1cc(C(=O)NC(C)(CC(N)=O)C2CC2)ncc1C1CC1` (stereo not shown) [Example 294, N-(4-amino-2-cyclopropyl-4-oxobutan-2-yl)-5-cyclopropyl-4-(1-fluoropropan-2-yloxy)picolinamide], the EC50 in assay [1] (setting [3]) is more than 10 µM; in assay [2] (read-out: Human CB2 EC50), 0.0006 µM.
Turning to `CCC(CC)(NC(=O)c1cc(OCC2(C)COC2)c(C2CC2)cn1)C(=O)NCC(F)CCl` (stereo not shown) [Example 235, N-[3-[[3-chloro-2-fluoropropyl]carbamoyl]pentan-3-yl]-5-cyclopropyl-4-[(3-methyloxetan-3-yl)methoxy]pyridine-2-carboxamide], the concentration for a half-maximal effect (EC50) in assay [1] (setting [3]) was more than 10 µM; in assay [2] (read-out: Human CB2 EC50) it was 0.293 µM.
Regarding `CC(CC(N)=O)(NC(=O)c1cc(OCC(F)(F)F)c(C2CC2)cn1)C1CC1` (single isomer, unassigned) [Example 244, N-[4-amino-2-cyclopropyl-4-oxobutan-2-yl]-5-cyclopropyl-4-(2,2,2-trifluoroethoxy)pyridine-2-carboxamide], the half-maximal effective concentration (EC50) is more than 10 µM in assay [1] (setting [4]) and 0.0284 µM in assay [2] (Human CB2 EC50 (uM)).
For `Cc1nc(C(C)(NC(=O)c2cc(OCC(F)(F)F)c(C3CC3)cn2)C(N)=O)no1` (stereo not shown) [Example 180, N-[1-amino-2-(5-methyl-1,2,4-oxadiazol-3-yl)-1-oxopropan-2-yl]-5-cyclopropyl-4-(2,2,2-trifluoroethoxy)pyridine-2-carboxamide], the values for the EC50 in assay [1] (setting [3]) and in assay [2] (read-out: Human CB2 EC50) were more than 10 µM and 0.149 µM, respectively.
In the case of `Cc1nc([C@@](C)(CS(C)(=O)=O)NC(=O)c2cc(OCC(F)(F)F)c(C3CC3)cn2)no1` (single isomer, unassigned) [Example 98, 5-Cyclopropyl-4-(2,2,2-trifluoro-ethoxy)-pyridine-2-carboxylic acid [2-methanesulfonyl-1-methyl-1-(5-methyl-[1,2,4]oxadiazol-3-yl)-ethyl]-amide], the half-maximal effective concentration (EC50) in assay [1] (setting [5]) is more than 10 µM; in assay [2] (Human CB2 EC50 (uM)), 0.0706 µM.
